Measured values published in PubChem BioAssay (NCI).
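GI50 = concentration required for 50% inhibition of growth. TGI denotes the concentration required for complete inhibition of growth.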

How the values were obtained:
Assay in all cases: inhibition of tumour cell growth, NCI panel, 384-well format
786-0 renal = system: 786-0 renal
A498 renal = system: A498 renal
A549 NSCLC = system: A549 NSCLC
ACHN renal = system: ACHN renal
BT-549 breast = system: BT-549 breast
CAKI-1 renal = system: CAKI-1 renal
CCRF-CEM leukemia = system: CCRF-CEM leukemia
COLO 205 colon = system: COLO 205 colon
DU-145 prostate = system: DU-145 prostate
EKVX NSCLC = system: EKVX NSCLC
HCC-2998 colon = system: HCC-2998 colon
HCT-15 colon = system: HCT-15 colon
HOP-62 NSCLC = system: HOP-62 NSCLC
HOP-92 NSCLC = system: HOP-92 NSCLC
HS 578T breast = system: HS 578T breast
HT29 colon = system: HT29 colon
IGROV1 ovarian = system: IGROV1 ovarian
K-562 leukemia = system: K-562 leukemia
KM12 colon = system: KM12 colon
LOX IMVI melanoma = system: LOX IMVI melanoma
M14 melanoma = system: M14 melanoma
MALME-3M melanoma = system: MALME-3M melanoma
MCF7 breast = system: MCF7 breast
MDA-MB-231 breast = system: MDA-MB-231 breast
MDA-MB-435 melanoma = system: MDA-MB-435 melanoma
MDA-MB-468 breast = system: MDA-MB-468 breast
MOLT-4 leukemia = system: MOLT-4 leukemia
NCI-H226 lung = system: NCI-H226 lung
NCI-H23 lung = system: NCI-H23 lung
NCI-H322M lung = system: NCI-H322M lung
NCI-H460 NSCLC = system: NCI-H460 NSCLC
NCI-H522 lung = system: NCI-H522 lung
NCI/ADR-RES ovarian = system: NCI/ADR-RES ovarian
OVCAR-3 ovarian = system: OVCAR-3 ovarian
OVCAR-4 ovarian = system: OVCAR-4 ovarian
OVCAR-5 ovarian = system: OVCAR-5 ovarian
OVCAR-8 ovarian = system: OVCAR-8 ovarian
PC-3 prostate = system: PC-3 prostate
RPMI-8226 leukemia = system: RPMI-8226 leukemia
RXF 393 renal = system: RXF 393 renal
SF-268 CNS = system: SF-268 CNS
SF-295 CNS = system: SF-295 CNS
SF-539 CNS = system: SF-539 CNS
SK-MEL-28 melanoma = system: SK-MEL-28 melanoma
SK-MEL-5 melanoma = system: SK-MEL-5 melanoma
SK-OV-3 ovarian = system: SK-OV-3 ovarian
SN12C renal = system: SN12C renal
SNB-19 CNS = system: SNB-19 CNS
SNB-75 CNS = system: SNB-75 CNS
SR leukemia = system: SR leukemia
SW-620 colon = system: SW-620 colon
T-47D breast = system: T-47D breast
TK-10 renal = system: TK-10 renal
U251 glioblastoma = system: U251 glioblastoma
UACC-62 melanoma = system: UACC-62 melanoma
UO-31 renal = system: UO-31 renal

CC(C)(C(=O)NCC(F)(F)C(F)(F)F)C(=O)N[C@@H]1C(=O)Nc2ccccc2-c2ccccc21
GI50 ([…]-0 renal): 58.5 µM | TGI (786-0 renal): > 100 µM | GI50 (A498 renal): 47 µM | TGI (A498 renal): > 100 µM | GI50 (A549 NSCLC): 33.6 µM | TGI (A549 NSCLC): > 100 µM | GI50 (ACHN renal): 54.8 µM | TGI (ACHN renal): > 100 µM | GI50 (BT-549 breast): 39.2 µM | TGI (BT-549 breast): > 100 µM | GI50 (CAKI-1 renal): > 100 µM | TGI (CAKI-1 renal): > 100 µM | GI50 (CCRF-CEM leukemia): 18.6 µM | TGI (CCRF-CEM leukemia): 69.8 µM | GI50 (COLO 205 colon): 44.6 µM | TGI (COLO 205 colon): > 100 µM | GI50 (DU-145 prostate): 55.9 µM | TGI (DU-145 prostate): > 100 µM | GI50 (EKVX NSCLC): 29 µM | TGI (EKVX NSCLC): > 100 µM | GI50 (HCC-2998 colon): 24 µM | TGI (HCC-2998 colon): > 100 µM | GI50 (HCT-15 colon): 43.3 µM | TGI (HCT-15 colon): > 100 µM | GI50 (HOP-62 NSCLC): 74.6 µM | TGI (HOP-62 NSCLC): > 100 µM | GI50 (HOP-92 NSCLC): 32.5 µM | TGI (HOP-92 NSCLC): > 100 µM | GI50 (HS 578T breast): 32 µM | TGI (HS 578T breast): > 100 µM | GI50 (HT29 colon): 37.2 µM | TGI (HT29 colon): > 100 µM | GI50 (IGROV1 ovarian): 92.1 µM | TGI (IGROV1 ovarian): > 100 µM | GI50 (K-562 leukemia): 44.8 µM | TGI (K-562 leukemia): > 100 µM | GI50 (KM12 colon): 53.2 µM | TGI (KM12 colon): > 100 µM | GI50 (LOX IMVI melanoma): > 100 µM | TGI (LOX IMVI melanoma): > 100 µM | GI50 (M14 melanoma): 89.2 µM | TGI (M14 melanoma): > 100 µM | GI50 (MALME-3M melanoma): 22.2 µM | TGI (MALME-3M melanoma): > 100 µM | GI50 (MCF7 breast): 22 µM | TGI (MCF7 breast): > 100 µM | GI50 (MDA-MB-231 breast): 51.2 µM | TGI (MDA-MB-231 breast): > 100 µM | GI50 (MDA-MB-435 melanoma): 92.7 µM | TGI (MDA-MB-435 melanoma): > 100 µM | TGI (MDA-MB-468 breast): 33.3 µM | GI50 (MOLT-4 leukemia): 11.5 µM | TGI (MOLT-4 leukemia): 25.6 µM | GI50 (NCI-H226 lung): 45.8 µM | TGI (NCI-H226 lung): > 100 µM | GI50 (NCI-H23 lung): 41.1 µM | TGI (NCI-H23 lung): > 100 µM | GI50 (NCI-H322M lung): > 100 µM | TGI (NCI-H322M lung): > 100 µM | GI50 (NCI-H460 NSCLC): 46 µM | TGI (NCI-H460 NSCLC): > 100 µM | GI50 (NCI-H522 lung): 42.4 µM | TGI (NCI-H522 lung): > 100 µM | GI50 (NCI/ADR-RES ovarian): 30 µM | TGI (NCI/ADR-RES ovarian): > 100 µM | GI50 (OVCAR-3 ovarian): 36.3 µM | TGI (OVCAR-3 ovarian): > 100 µM | GI50 (OVCAR-4 ovarian): 17.5 µM | TGI (OVCAR-4 ovarian): 76.3 µM | GI50 (OVCAR-5 ovarian): > 100 µM | TGI (OVCAR-5 ovarian): > 100 µM | GI50 (OVCAR-8 ovarian): 69.9 µM | TGI (OVCAR-8 ovarian): > 100 µM | GI50 (PC-3 prostate): 41.2 µM | TGI (PC-3 prostate): > 100 µM | GI50 (RPMI-8226 leukemia): 18.8 µM | TGI (RPMI-8226 leukemia): 76.4 µM | GI50 (RXF 393 renal): 27.3 µM | TGI (RXF 393 renal): > 100 µM | GI50 (SF-268 CNS): > 100 µM | TGI (SF-268 CNS): > 100 µM | GI50 (SF-295 CNS): 52.5 µM | TGI (SF-295 CNS): > 100 µM | GI50 (SF-539 CNS): > 100 µM | TGI (SF-539 CNS): > 100 µM | GI50 (SK-MEL-28 melanoma): 46.9 µM | TGI (SK-MEL-28 melanoma): > 100 µM | GI50 (SK-MEL-5 melanoma): 39.1 µM | TGI (SK-MEL-5 melanoma): > 100 µM | GI50 (SK-OV-3 ovarian): 90.8 µM | TGI (SK-OV-3 ovarian): > 100 µM | GI50 (SN12C renal): > 100 µM | TGI (SN12C renal): > 100 µM | GI50 (SNB-19 CNS): 63.5 µM | TGI (SNB-19 CNS): > 100 µM | GI50 (SNB-75 CNS): 63.6 µM | TGI (SNB-75 CNS): > 100 µM | GI50 (SR leukemia): 23.3 µM | TGI (SR leukemia): > 100 µM | GI50 (SW-620 colon): > 100 µM | TGI (SW-620 colon): > 100 µM | GI50 (T-47D breast): 6.31 µM | TGI (T-47D breast): 48.1 µM | GI50 (TK-10 renal): 88.7 µM | TGI (TK-10 renal): > 100 µM | GI50 (U251 glioblastoma): > 100 µM | TGI (U251 glioblastoma): > 100 µM | GI50 (UACC-62 melanoma): 20.4 µM | TGI (UACC-62 melanoma): > 100 µM | GI50 (UO-31 renal): 74.6 µM | TGI (UO-31 renal): > 100 µM
